Results reported in ChEMBL document CHEMBL5550206, “Identification of 6-Fluorine-Substituted Coumarin Analogues as POLRMT Inhibitors with High Potency and Safety for Treatment of Pancreatic Cancer” (J Med Chem, 2024).
Active and inactive are the calls of the source. The calls are words filed in the database; no cut-off is given here.

Experiments:
[1] = tested on: MIA PaCa-2; assay: Antiproliferative activity against human MIA PaCa-2 cells assessed as cell viability measured after 168 hrs incubation by SRB assay; assay type: functional, cell-based; conditions: MIA PaCa-2, 168 h
[2] = tested on: MIA PaCa-2; assay: Effect on ATP5A protein complexes in human MIA PaCa-2 cells reduction in NDUFB8 protein level at 0.01 to 10 uM by Western blot analysis; assay type: functional, cell-based; conditions: dose 0.01-10 µM
[3] = tested on: MIA PaCa-2; assay: Down-regulation of ND1 gene expression in human MIA PaCa-2 cells at 0.1 to 1 uM measured after 12 hrs by RT-qPCR analysis; assay type: functional, cell-based; conditions: dose 0.1-1 µM
[4] = tested on: MIA PaCa-2; assay: Induction of senescence in human MIA PaCa-2 cells at 50 to 1000 nM measured after 96 hrs by beta-galactosidase staining based assay; assay type: functional, cell-based; conditions: dose 50-1000 nM
[5] = tested on: MIA PaCa-2; assay: Induction of cell arrest in human MIA PaCa-2 cells assessed as early apoptotic cells at 500 nM measured after 4 days by Annexin V-FITC and propidium iodide (PI) staining based assay (reference value: 1.07%); assay type: functional; conditions: time 4 day
[6] = tested on: MIA PaCa-2; assay: Reduction of protein complexes of mitochondrial electron transport chain in human MIA PaCa-2 cells reduction in UQCRC2 protein level by Western blot analysis; assay type: functional, cell-based; conditions: dose 0.001-5 µM
[7] = tested on: MIA PaCa-2; assay: Induction of cell arrest in human MIA PaCa-2 cells assessed as necrotic cells at 25 nM measured after 4 days by Annexin V-FITC and propidium iodide (PI) staining based assay (reference value: 0.82%); assay type: functional; conditions: time 4 day
[8] = tested on: MIA PaCa-2; assay: Induction of cell arrest in human MIA PaCa-2 cells assessed as accumulation of cells at S phase at 25 nM measured after 96 hrs by PI staining based flow cytometry (reference value: 16.8%); assay type: functional
[9] = target: DNA-directed RNA polymerase, mitochondrial (Homo sapiens) (UniProt O00411); assay: Inhibition of human POLRMT in human MIA PaCa-2 cells assessed as mitochondria coded ubiquinone oxidoreductase core subunit 1 (ND I) transcript level at 500 nM measured after 24 hrs by RT-qPCR analysis relative to control; set-up: scale not given: the % may be the effect or the level left
Chain of DNA-directed RNA polymerase, mitochondrial (Homo sapiens) (O00411 whole entry): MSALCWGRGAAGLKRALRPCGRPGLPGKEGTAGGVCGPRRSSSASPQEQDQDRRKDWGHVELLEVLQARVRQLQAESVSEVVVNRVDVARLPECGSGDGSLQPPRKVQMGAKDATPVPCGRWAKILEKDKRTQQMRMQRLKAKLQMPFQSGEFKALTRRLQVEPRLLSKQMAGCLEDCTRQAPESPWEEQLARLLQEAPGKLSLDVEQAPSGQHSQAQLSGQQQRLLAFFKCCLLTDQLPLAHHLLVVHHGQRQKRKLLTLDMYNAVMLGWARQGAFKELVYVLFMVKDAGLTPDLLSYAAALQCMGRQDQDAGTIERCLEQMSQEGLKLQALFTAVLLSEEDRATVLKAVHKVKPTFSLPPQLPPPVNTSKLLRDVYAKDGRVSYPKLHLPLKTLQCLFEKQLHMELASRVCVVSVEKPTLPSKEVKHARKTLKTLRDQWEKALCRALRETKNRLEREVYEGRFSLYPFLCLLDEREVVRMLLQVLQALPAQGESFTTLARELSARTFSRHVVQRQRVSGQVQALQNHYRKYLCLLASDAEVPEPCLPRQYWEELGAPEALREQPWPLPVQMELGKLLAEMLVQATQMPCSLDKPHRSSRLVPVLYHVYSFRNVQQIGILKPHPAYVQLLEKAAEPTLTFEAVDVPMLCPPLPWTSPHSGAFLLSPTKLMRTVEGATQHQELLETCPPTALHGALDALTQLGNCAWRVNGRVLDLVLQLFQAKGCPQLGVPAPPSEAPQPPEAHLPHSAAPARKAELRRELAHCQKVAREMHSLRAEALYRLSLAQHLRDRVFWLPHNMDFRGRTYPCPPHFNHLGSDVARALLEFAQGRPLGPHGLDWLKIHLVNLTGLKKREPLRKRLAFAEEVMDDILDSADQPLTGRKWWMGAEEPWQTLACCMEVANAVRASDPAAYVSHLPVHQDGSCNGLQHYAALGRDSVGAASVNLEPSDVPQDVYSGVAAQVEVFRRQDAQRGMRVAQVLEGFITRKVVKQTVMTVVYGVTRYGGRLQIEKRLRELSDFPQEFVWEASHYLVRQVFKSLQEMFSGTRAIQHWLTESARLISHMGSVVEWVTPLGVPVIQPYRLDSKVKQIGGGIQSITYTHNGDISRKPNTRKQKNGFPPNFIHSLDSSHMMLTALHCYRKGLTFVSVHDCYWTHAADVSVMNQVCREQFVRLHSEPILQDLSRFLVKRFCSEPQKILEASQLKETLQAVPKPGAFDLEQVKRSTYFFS

[10] = tested on: MIA PaCa-2; assay: Induction of cell arrest in human MIA PaCa-2 cells assessed as accumulation of cells at G1 phase at 25 nM measured after 96 hrs by PI staining based flow cytometry (reference value: 64%); assay type: functional
[11] = Antiproliferative activity against HUVEC cells assessed as cell viability measured after 168 hrs incubation by SRB assay; assay type: toxicity, cell-based; conditions: human
[12] = tested on: MIA PaCa-2; assay: Induction of cell arrest in human MIA PaCa-2 cells assessed as late apoptotic cells at 25 nM measured after 4 days by Annexin V-FITC and propidium iodide (PI) staining based assay (reference value: 3.23%); assay type: functional; conditions: time 4 day
[13] = tested on: MIA PaCa-2; assay: Induction of apoptosis in human MIA PaCa-2 cells xenografted in BALB/c mouse at 25 to 100 mg/kg, iv once daily for 25 consecutive day after 2 weeks of cells injection by TUNEL staining based analysis; assay type: functional, organism-based; conditions: dose 25-100 mg/kg
[14] = tested on: MIA PaCa-2; assay: Induction of cell arrest in human MIA PaCa-2 cells assessed as accumulation of cells at G2 phase at 25 nM measured after 96 hrs by PI staining based flow cytometry (reference value: 11.2%); assay type: functional
[15] = tested on: MIA PaCa-2; assay: Down-regulation of CytB gene expression in human MIA PaCa-2 cells at 0.1 to 1 uM measured after 12 hrs by RT-qPCR analysis; assay type: functional, cell-based; conditions: dose 0.1-1 µM
[16] = tested on: MIA PaCa-2; assay: Reduction of protein complexes of mitochondrial electron transport chain in human MIA PaCa-2 cells reduction in MTCO1 protein level by Western blot analysis; assay type: functional, cell-based; conditions: dose 0.001-5 µM
[17] = tested on: MIA PaCa-2; assay: Induction of cell arrest in human MIA PaCa-2 cells assessed as viable cells at 100 nM measured after 4 days by Annexin V-FITC and propidium iodide (PI) staining based assay (reference value: 94.9%); assay type: functional; conditions: MIA PaCa-2, 96 h, time 4 day, read-out: Activity
[18] = tested on: MIA PaCa-2; assay: Induction of cell arrest in human MIA PaCa-2 cells assessed as accumulation of cells at G2 phase at 500 nM measured after 96 hrs by PI staining based flow cytometry (reference value: 11.2%); assay type: functional
[19] = tested on: MIA PaCa-2; assay: Induction of cell arrest in human MIA PaCa-2 cells assessed as accumulation of cells at S phase at 500 nM measured after 96 hrs by PI staining based flow cytometry (reference value: 16.8%); assay type: functional
[20] = tested on: MIA PaCa-2; assay: Induction of cell arrest in human MIA PaCa-2 cells assessed as early apoptotic cells at 200 nM measured after 4 days by Annexin V-FITC and propidium iodide (PI) staining based assay (reference value: 1.07%); assay type: functional; conditions: time 4 day
[21] = tested on: MIA PaCa-2; assay: Induction of cell arrest in human MIA PaCa-2 cells assessed as accumulation of cells at G1 phase at 50 nM measured after 96 hrs by PI staining based flow cytometry (reference value: 64%); assay type: functional
[22] = tested on: MIA PaCa-2; assay: Induction of cell arrest in human MIA PaCa-2 cells assessed as accumulation of cells at G1 phase at 100 nM measured after 96 hrs by PI staining based flow cytometry (reference value: 64%); assay type: functional
[23] = Toxicity in BALB/c mouse xenografted with human MIA PaCa-2 cells assessed as pathological change in liver at 25 to 100 mg/kg, iv once daily for 25 consecutive day after 2 weeks of cells injection by H and E staining based optical microscopic analysis; assay type: organism-based; conditions: in vivo, 336 h, dose 25-100 mg/kg
[24] = tested on: MIA PaCa-2; assay: Inhibition of RNA pol III in human MIA PaCa-2 cells assessed as effect on 5S RNA level at 0.1 to 1 uM measured after 12 hrs by RT-qPCR analysis; assay type: cell-based; conditions: dose 0.1-1 µM
[25] = tested on: MIA PaCa-2; assay: Induction of cell arrest in human MIA PaCa-2 cells assessed as late apoptotic cells at 50 nM measured after 4 days by Annexin V-FITC and propidium iodide (PI) staining based assay (reference value: 3.23%); assay type: functional; conditions: time 4 day
[26] = tested on: MIA PaCa-2; assay: Reduction of protein complexes of mitochondrial electron transport chain in human MIA PaCa-2 cells reduction in NDUFB8 protein level by Western blot analysis; assay type: functional, cell-based; conditions: dose 0.001-5 µM
[27] = tested on: MIA PaCa-2; assay: Down-regulation of COX1 gene expression in human MIA PaCa-2 cells at 0.1 to 1 uM measured after 12 hrs by RT-qPCR analysis; assay type: functional, cell-based; conditions: dose 0.1-1 µM
[28] = tested on: MIA PaCa-2; assay: Induction of cell arrest in human MIA PaCa-2 cells assessed as necrotic cells at 50 nM measured after 4 days by Annexin V-FITC and propidium iodide (PI) staining based assay (reference value: 0.82%); assay type: functional; conditions: time 4 day
[29] = tested on: MIA PaCa-2; assay: Induction of cell arrest in human MIA PaCa-2 cells assessed as accumulation of cells at G2 phase at 200 nM measured after 96 hrs by PI staining based flow cytometry (reference value: 11.2%); assay type: functional
[30] = Toxicity in BALB/c mouse xenografted with human MIA PaCa-2 cells assessed as pathological change in kidney at 25 to 100 mg/kg, iv once daily for 25 consecutive day after 2 weeks of cells injection by H and E staining based optical microscopic analysis; assay type: organism-based; conditions: in vivo, 336 h, dose 25-100 mg/kg
[31] = tested on: MIA PaCa-2; assay: Effect on mitochondrial membrane potential loss in human MIA PaCa-2 cells assessed as change in membrane potential at 0.1 to 5 uM incubated for 96 hrs by JC-1 staining based flow cytometry analysis; assay type: functional, cell-based; conditions: dose 0.1-5 µM

- IC50 [1]: 5 nM
- Activity [9]: 9%
Structure (SMILES): CCN(CC)C(=O)[C@@H](C)Oc1cc2oc(=O)cc(-c3ccccc3C)c2cc1F
- Activity [2]: inactive
- Activity [3]: Active
- Activity [4]: inactive
- Activity [5]: 0.77%
- Activity [6]: Dose-Dependent Effect
- Activity [7]: 0.82%
- Activity [8]: 14.2%
- Activity [10]: 65.5%
- IC50 at 168 h [11]: > 50000 nM
- Activity [12]: 3.32%
- Activity [13]: inactive
- Activity [14]: 12.6%
- Activity [15]: Active
- Activity [16]: Dose-Dependent Effect
- viability at 0.1 µM [17]: 94.9%
- Activity [18]: 11.6%
- Activity [19]: 17.6%
- Activity [20]: 1.06%
- Activity [21]: 67.1%
- Activity [22]: 63.6%
- Activity [23]: Non-Toxic
- inhibition [24]: inactive
- Activity [25]: 4.02%
- Activity [26]: Dose-Dependent Effect
- Activity [27]: Active
- Activity [28]: 0.76%
- Activity [29]: 13%
- Activity [30]: Non-Toxic
- Activity [31]: inactive
